This note sets out measurements from publication PMC10812672, “Short Antimicrobial Peptide Derived from the Venom Gland Transcriptome of Pamphobeteus verdolaga Increases Gentamicin Susceptibility of Multidrug-Resistant Klebsiella pneumoniae” (Antibiotics, 2023).

Ends that are not written are not given here.

One assay deals with E. coli ATCC® 25922. It counts as cell-based, Escherichia coli. As to conditions: CLSI broth microdilution, Mueller-Hinton broth, peptide 30 µM, ~6 × 10^6 CFU/mL, 24 h 37 °C, OD600; triplicate, three independent assays; NA = no activity. The procedure:
(§1) Activity screening was conducted using the broth microdilution method at a fixed peptide concentration of 30 µM against E. coli ATCC® 8739 and 25922, as well as S. aureus ATCC® 6538 and 29213. The bacterial density used for screening was approximately 6 × 10^6 CFU/mL [30]. Peptide activity measurements were conducted in terms of the growth inhibition percentage. No dose-response curves were generated during the screening phase as a resource optimization strategy in the initial activity evaluation. […] For S. aureus ATCC® 6538 and S. aureus ATCC® 29213, growth inhibition ranged from 0% to 140% and 0% to 98%, respectively (Table 1).
(§2) The evaluation of the antimicrobial activity of the peptides was conducted using the CLSI’s broth microdilution method for bacterial susceptibility testing. For the screening phase, peptides were evaluated at a single 30 μM concentration, in triplicate and in three independent assays, against the E. coli ATCC® 8739, E. coli ATCC® 25922, S. aureus ATCC® 6538, or S. aureus ATCC® 29213 reference USP and CLSI strains. For the determination of MIC, MBC, or IC50, peptides or antibiotics were evaluated in concentrations between 1.56–200 µM. These evaluations were conducted in triplicate and in three independent assays, against the E. coli ATCC® 25922, S. aureus ATCC® 29213, E. faecalis ATCC® 49532, P. aeruginosa ATCC® 9027, and K. pneumoniae ATCC® BAA-1705, or the clinically isolated MDR strain. In detail, 1 mL of a glycerol stock solution of the ATCC® or clinically isolated bacterial strain was added to 9 mL of Mueller-Hinton Broth and incubated for 18 h, 180 rpm and 37 °C (Incubator 1000, Heidolph Instruments, Schwabach, Germany). After the incubation, 1 mL of the previous solution was transferred to a new recipient containing 9 mL of fresh Mueller-Hinton broth and incubated for 4 h, 180 rpm and 37 °C (Incubator 1000, Heidolph Instruments, Schwabach, Germany). During the second incubation, the peptides or the antibiotics were dissolved in PBS pH 7.20 in concentrations between 19.53–2500 µM (MC5 Micro Balance, Sartorius AG, Göttingen, Germany). An amount of 10 µL of either peptide or antibiotic was dispensed in triplicate in 96-well flat bottom culture plates, along with 10 µL of PBS (Negative activity control), BTM-P1 (Positive activity control), or 10 µL of Mueller-Hinton broth (Blank); then, 110 µL of Mueller-Hinton broth was poured in all wells. Following this, the bacteria were suspended in Mueller-Hinton broth up to a concentration of approximately 1.50 × 10^8 CFU/mL, as measured by optical density at 600 nm between 0.06 to 0.11 (0.5 McFarland standard), in a Multiskan SkyHigh spectrophotometer (ThermoFisher Scientific, Waltham, MA, USA). Amounts of 5 µL of the 1.50 × 10^8 CFU/mL suspension were added to each well (except for the blank) for a final well concentration of approximately 6 × 10^6 CFU/mL. The plate was incubated for 24 h at 37 °C (BE 500, Memmert GmbH, Büchenbach, Germany) and optical density was measured at 600 nm in a Multiskan SkyHigh spectrophotometer (ThermoFisher Scientific, Waltham, MI, USA). Following the measurement of optical density, plates were visually inspected to determine the MIC. Subsequently, 100 µL of the concentration associated to the MIC and 100 µL of the next higher concentration were added to Petri dishes containing Mueller-Hinton Agar. The dishes were then incubated for 24 h at 37 °C (BE 500, Memmert GmbH, Büchenbach, Germany). After incubation, the Petri dishes were visually inspected, and the MBC was determined in the absence of growth. IC50 values were interpolated from regressions with correlation values above 0.70. Growth inhibition percentages were calculated as follows: Growth inhibition %=1−AbsPEPTIDE or ANTIBIOTIC−Median AbsBLANK/Median AbsPBS−Median AbsBLANK×100
For orientation: Dilution methods test growth across graded concentrations, often in twofold steps.

A further assay has as its system E. coli ATCC® 8739. In kind it is cell-based, Escherichia coli. As to conditions: CLSI broth microdilution, Mueller-Hinton broth, peptide 30 µM, ~6 × 10^6 CFU/mL, 24 h 37 °C, OD600; triplicate, three independent assays; NA = no activity. The procedure: as §1, §2

As for WKKIKKFF-NH2 [PvAMP66], the “E. coli ATCC® 25922 (Inhibition %)” value in the assay with E. coli ATCC® 25922 was determined as 73.59 ± 21.83 %. The “E. coli ATCC® 8739 (Inhibition %)” value with E. coli ATCC® 8739 came to 88.81 ± 18.15 %.
